Some test systems named below: U251 CNS; RXF-631 renal; PC-3 prostate; DMS 273 small cell lung; M14 melanoma; M19-MEL melanoma; LXFL 529 NSCLC; SNB-78 CNS; HOP-92 NSCLC; NCI/ADR-RES ovarian.
Common to all, as to assay: NCI tumour cell line growth inhibition, 48 h

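Values below derive from 48-hour exposures of cells grown in 96-well plates, with endpoints linearly interpolated between the two concentrations bracketing the appropriate inhibition level. GI50: concentration for 50% inhibition of growth. TGI: total growth inhibition.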 A value given as a limit tells only on which side of the number the result lay.

The record followed here is PubChem BioAssay (NCI).

With `COC1C(O)C(C)OC(OC2C(Oc3cccc4c(O)c5c(=O)oc6ccc(C)c7c(=O)oc(c34)c5c67)OC(C)C3O[C@H](c4ccccc4)OC32)C1O` (stereo not given in full), the TGI stood at 10.9 µM with U251 CNS; 2.37 µM in the experiment with RXF-631 renal; 8.71 µM in the experiment with PC-3 prostate; 1.59 µM with DMS 273 small cell lung; 6.48 µM in the experiment on M14 melanoma; 3.56 µM in the experiment with M19-MEL melanoma. The TGI with LXFL 529 NSCLC turned out to be 3.18 µM; in the experiment on SNB-78 CNS, 4.73 µM; in the experiment with HOP-92 NSCLC, 7.21 µM; in the experiment with NCI/ADR-RES ovarian it was 10.8 µM. Moreover, the GI50 is 0.243 µM in the experiment on PC-3 prostate, 0.514 µM in the experiment with M14 melanoma and 0.0823 µM in the experiment with HOP-92 NSCLC.
As for `CC1(C)CCC[C@@]2(C)C1C[C@H](O)[C@@]1(C)O[C@@](C)([C@H](O)CO)CCC21` (stereo not given in full), the TGI with U251 CNS, with RXF-631 renal, in the experiment on DMS 273 small cell lung, with M14 melanoma, with M19-MEL melanoma and in the experiment on LXFL 529 NSCLC was above 100 µM each time. Also, the TGI is above 100 µM in the experiment with SNB-78 CNS and 70.7 µM with HOP-92 NSCLC.
With `CC1(C)OC(=O)[C@@](C)([C@H](O)c2ccccc2)O1`, the TGI in the experiment on U251 CNS, in the experiment on RXF-631 renal, in the experiment on DMS 273 small cell lung, in the experiment on M14 melanoma, in the experiment with M19-MEL melanoma and with LXFL 529 NSCLC was above 100 µM throughout. Also, the TGI in the experiment on SNB-78 CNS and with HOP-92 NSCLC was above 100 µM each time.
For the compound `Cc1ccc(NC(=O)CC/C(CC(=O)C(C)(C)C)=N/NC(=O)C(N)=O)cc1C`, the TGI in the experiment on U251 CNS, in the experiment with RXF-631 renal, in the experiment with DMS 273 small cell lung, in the experiment with M14 melanoma, in the experiment with M19-MEL melanoma and in the experiment on LXFL 529 NSCLC was above 100 µM throughout. The TGI in the experiment with SNB-78 CNS and with HOP-92 NSCLC was above 100 µM throughout.
On to `N#CNC(N)=NCCO`, for which the TGI in the experiment with U251 CNS, with RXF-631 renal, in the experiment on DMS 273 small cell lung, in the experiment on M14 melanoma, in the experiment on M19-MEL melanoma and in the experiment on LXFL 529 NSCLC was above 100 µM in each case. The TGI in the experiment with SNB-78 CNS and in the experiment on HOP-92 NSCLC was above 100 µM throughout.
